Reference: patent US20080108569A1, “Compositions and Methods for Treating Diseases Associated With Phlpp” (The Regents of the University of California, priority 2005, published 2008)

Assays:
[1] = target: T1, PHLPP-1α (Homo sapiens, UniProt O60346); test: okadaic acid sensitivity of PHLPP-1α mediated dephosphorylation of Akt at Ser473 in 293T cells; assay type: cell-based; details: OA 1 μM for 15 minutes, 293T cells transfected with HA-PHLPP-1α
T1 construct: The full-length human PHLPP-1α cDNA was cloned by combining the following cDNA fragments; expressed in transfected cells; host or cells: 293T cells
T1 sequence (O60346 1-1205 isoform O60346-2): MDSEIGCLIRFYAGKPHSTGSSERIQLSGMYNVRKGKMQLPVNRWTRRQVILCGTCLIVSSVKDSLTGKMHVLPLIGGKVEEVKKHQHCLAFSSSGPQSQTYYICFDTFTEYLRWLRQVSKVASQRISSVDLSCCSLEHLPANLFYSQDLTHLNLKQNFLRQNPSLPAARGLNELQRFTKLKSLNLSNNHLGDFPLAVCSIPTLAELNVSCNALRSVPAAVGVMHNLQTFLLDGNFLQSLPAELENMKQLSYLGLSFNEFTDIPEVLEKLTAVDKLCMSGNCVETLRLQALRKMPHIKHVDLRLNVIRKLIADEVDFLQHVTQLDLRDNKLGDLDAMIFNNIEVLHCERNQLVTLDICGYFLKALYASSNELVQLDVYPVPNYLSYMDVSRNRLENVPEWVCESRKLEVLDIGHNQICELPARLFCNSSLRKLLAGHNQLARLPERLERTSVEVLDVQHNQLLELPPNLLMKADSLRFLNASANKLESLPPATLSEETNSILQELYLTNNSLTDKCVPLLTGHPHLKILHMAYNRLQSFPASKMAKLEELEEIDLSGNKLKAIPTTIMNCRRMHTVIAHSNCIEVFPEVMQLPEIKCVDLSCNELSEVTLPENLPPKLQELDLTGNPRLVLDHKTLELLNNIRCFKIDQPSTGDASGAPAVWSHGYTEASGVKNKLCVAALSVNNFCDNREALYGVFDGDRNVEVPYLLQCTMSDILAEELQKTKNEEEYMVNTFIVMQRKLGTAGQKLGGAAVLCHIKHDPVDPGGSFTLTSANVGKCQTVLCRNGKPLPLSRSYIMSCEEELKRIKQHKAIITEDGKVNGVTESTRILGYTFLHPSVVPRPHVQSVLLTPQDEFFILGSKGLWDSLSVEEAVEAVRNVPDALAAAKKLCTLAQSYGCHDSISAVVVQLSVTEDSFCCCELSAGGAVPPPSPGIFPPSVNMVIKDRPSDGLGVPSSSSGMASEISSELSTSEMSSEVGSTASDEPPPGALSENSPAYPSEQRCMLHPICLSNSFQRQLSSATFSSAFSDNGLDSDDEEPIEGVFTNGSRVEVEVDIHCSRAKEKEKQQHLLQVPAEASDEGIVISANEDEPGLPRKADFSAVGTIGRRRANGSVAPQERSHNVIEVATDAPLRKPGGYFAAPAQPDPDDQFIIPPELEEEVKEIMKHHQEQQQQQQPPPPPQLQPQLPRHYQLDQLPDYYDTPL
Protocol: FIG. 29. PHLPP-1α mediated-dephosphorylation of Akt at Ser473 is okadaic acid-insensitive. 293T cells transfected with HA-PHLPP-1α were serum starved overnight. The cells were then left untreated (lane 1), treated with insulin (100 nM) for 30 minutes (lane 2), treated with insulin for 30 minutes followed by okadaic acid (OA, 1 μM) for 15 minutes (lane 3), or treated with insulin for 30 minutes followed by OA for 15 minutes followed by LY294002 (LY, 30 μM) for 20 minutes (lane 4). Western blots showing phosphorylation of endogenous Akt as detected by P308 and P473 antibodies. Total Akt was detected using the anti-Akt antibody.

[2] = tested on: MDA-MB-231 cells; test: apoptosis assay, sub-2N DNA by flow cytometry; assay type: cell-based; details: co-expressed with PHLPP2
Protocol: Apoptosis assays were performed as described previously (Brognard et al., 2001). Briefly, cells were transfected with different PHLPP expression constructs or siRNAs. In the case of gating for transfected cells, a GFP expression construct was co-transfected into the cells. Approximately 24 hours post-transfection, the cells were switched to low serum medium (DMEM plus 0.1% FBS) and allowed to grow for an additional 48 hours. For LY294002 (25 μM) treatment, the drug was added at the time when the cells were switched into the low serum medium. The cells were collected and stained with propidium iodide (25 μg/ml). Apoptotic cells were defined as sub-2N DNA containing cells. Quantification of apoptosis was obtained using flow cytometry analysis with a Becton Dickinson FACSort.
Apoptotic assays were performed as described above. To determine G1/S ratios, cells were co-transfected with GFP and HA-PHLPP2 and incubated under high serum (10% FBS) conditions for 48 hrs and cells were gated based on GFP expression as described above. For BrdU incorporation assays, cells were transfected with 100 nM siRNA (si-1) and incubated for 48 hrs prior to performing assay following manufacturers protocol (Oncogene Research Products).

Molecule | sensitivity of PHLPP-1α mediated dephosphorylation of Akt at Ser473 [1] | rescue of the apoptosis induced by PHLPP2 [2]
C=C1[C@@H](O)[C@@H]2O[C@]3(CC[C@H](/C=C/[C@@H](C)[C@@H]4CC(C)=C[C@@]5(O[C@H](C[C@@](C)(O)C(=O)O)CC[C@H]5O)O4)O3)CC[C@H]2O[C@@H]1[C@@H](O)C[C@H](C)[C@H]1O[C@@]2(CCCCO2)CC[C@H]1C [okadaic acid] | insensitive | –
S473D: phosphomimetic and thus constitutively active Akt construct, resistant to dephosphorylation by PHLPP2 | – | two-thirds
